Experimental data published in PubChem BioAssay AID330 (DTP/NCI, 2004).
Where “and” joins values, the source holds several entries; their conditions need not be identical. Equal entries are not always repeated. Toxic doses and inconclusive results are not listed. Peptide text beside a SMILES is read from it. * marks the point of attachment. Boc = CC(C)(C)OC(=O)*

Tested on: P388 leukemia ip, CD2F1 mice, survival T/C
Assay: NCI In Vivo Anticancer Drug Screen. Data for tumor model P388 Leukemia (intraperitoneal) in CD2F1 (CDF1) mice
Conditions: endpoint: median survival time, higher = longer survival
Summary of the method: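 Mice carrying the transplanted tumor received test compound or vehicle. Survival was recorded in each group, and the value is the treated-group measurement divided by that of the vehicle-treated control group.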

[1] = dose: 50.0 mg/kg/injection, schedule: Q01DX005 (ip), vehicle: Klucel (hydroxypropylcellulose) (HPC)
[2] = dose: 100.0 mg/kg/injection, schedule: Q01DX005 (ip), vehicle: Klucel (hydroxypropylcellulose) (HPC)
[3] = dose: 200.0 mg/kg/injection, schedule: Q01DX005 (ip), vehicle: Klucel (hydroxypropylcellulose) (HPC)
[4] = dose: 50.0 mg/kg/injection, schedule: Q01DX005 (ip), vehicle: saline with Tween-80
[5] = dose: 100.0 mg/kg/injection, schedule: Q01DX005 (ip), vehicle: saline with Tween-80
[6] = dose: 200.0 mg/kg/injection, schedule: Q01DX005 (ip), vehicle: saline with Tween-80
[7] = dose: 6.25 mg/kg/injection, schedule: Q01DX005 (ip), vehicle: saline with Tween-80
[8] = dose: 12.5 mg/kg/injection, schedule: Q01DX005 (ip), vehicle: saline with Tween-80
[9] = dose: 50.0 mg/kg/injection, schedule: Q01DX009 (ip), vehicle: saline with Tween-80
[10] = dose: 100.0 mg/kg/injection, schedule: Q01DX009 (ip), vehicle: saline with Tween-80
[11] = dose: 200.0 mg/kg/injection, schedule: Q01DX009 (ip), vehicle: saline with Tween-80
[12] = dose: 50.0 mg/kg/injection, schedule: Q01DX009 (ip), vehicle: Klucel (hydroxypropylcellulose) (HPC)
[13] = dose: 100.0 mg/kg/injection, schedule: Q01DX009 (ip), vehicle: Klucel (hydroxypropylcellulose) (HPC)

O=C(CCl)N1c2ccccc2Sc2ccc(Cl)cc21 was tested, and the T/C (dose: 3.13 mg/kg/injection, schedule: Q01DX009 (ip), vehicle: water) was 117 % of control, the T/C (dose: 6.25 mg/kg/injection, schedule: Q01DX009 (ip), vehicle: water) was 117 % of control and the T/C (dose: 12.5 mg/kg/injection, schedule: Q01DX009 (ip), vehicle: water) was 111 % of control.
With CCC1([N+](=O)[O-])CN(C)CC2CCCCN2C1 (configuration not stated) the T/C (dose: 25.0 mg/kg/injection, schedule: Q04DX002 (ip), vehicle: water) was 95 % of control, the T/C (dose: 50.0 mg/kg/injection, schedule: Q04DX002 (ip), vehicle: water) was 101 % of control and the T/C (dose: 100.0 mg/kg/injection, schedule: Q04DX002 (ip), vehicle: saline) was 100 % of control. For the same compound, the T/C (dose: 100.0 mg/kg/injection, schedule: Q04DX002 (ip), vehicle: water) was 103 % of control.
For CCCCC(CC)C(=O)OC(C)C(=O)N(CCCC)CCCC (configuration not stated), the T/C (dose: 25.0 mg/kg/injection, schedule: Q01DX005 (ip), vehicle: Klucel (hydroxypropylcellulose) (HPC)) was 105 % of control, the T/C [1] was 103 % of control and the T/C [2] was 105 % of control. For the same compound, the T/C [3] was 95 % of control.
For CCOc1ccc(NS(=O)(=O)c2ccc(N)cc2)cc1CN(CCCl)CCCl, the T/C (dose: 100.0 mg/kg/injection, schedule: Q01DX001 (ip), vehicle: saline with Tween-80) was 99 % of control, the T/C (dose: 200.0 mg/kg/injection, schedule: Q01DX001 (ip), vehicle: saline with Tween-80) was 99 % of control and the T/C (dose: 400.0 mg/kg/injection, schedule: Q01DX001 (ip), vehicle: saline with Tween-80) was 93 % of control.
CC(=O)OCC1OC(n2c(Br)nc3c(N)ncnc32)C(OC(C)=O)C1OC(C)=O (configuration not stated) was tested, and the T/C [4] was 103 % of control, the T/C [5] was 101 % of control and the T/C [6] was 97 % of control.
For O=C(COCC(=O)N/N=C/c1ccc(Cl)cc1)N/N=C/c1ccc(Cl)cc1, the T/C [7] was 95 % of control, the T/C [8] was 95 % of control and the T/C [6] was 95 % of control.
With O=C(c1ccc(-c2ccccc2)cc1)C1C(c2ccccc2)N1C1CCCCC1 (configuration not stated) the T/C (dose: 25.0 mg/kg/injection, schedule: Q01DX009 (ip), vehicle: other) was 88 % of control and the T/C (dose: 100.0 mg/kg/injection, schedule: Q01DX009 (ip), vehicle: other) was 91 % of control.
For COc1cc2c(cc1OC)C(=O)C(=C1C=CN(C)C=C1)N=C2, the T/C (dose: 100.0 mg/kg/injection, schedule: Q04DX003 (ip), vehicle: saline) was 101 % of control, the T/C (dose: 200.0 mg/kg/injection, schedule: Q04DX003 (ip), vehicle: saline) was 95 % of control and the T/C (dose: 400.0 mg/kg/injection, schedule: Q04DX003 (ip), vehicle: saline) was 100 % of control.
For O=C(C[N+]12CN3CN(CN(C3)C1)C2)c1ccc(Cl)cc1, the T/C (dose: 66.0 mg/kg/injection, schedule: Q04DX003 (ip), vehicle: saline sonified) was 104 % of control, the T/C (dose: 100.0 mg/kg/injection, schedule: Q04DX003 (ip), vehicle: saline sonified) was 122 % of control and the T/C (dose: 150.0 mg/kg/injection, schedule: Q04DX003 (ip), vehicle: saline sonified) was 118 % of control.
In the case of CCOC(=O)c1cnc2cc(Cl)ccc2c1N=[N+]=[N-], the T/C (dose: 60.0 mg/kg/injection, schedule: Q01DX005 (ip), vehicle: saline with Tween-80) is reported as 91 % of control, the T/C (dose: 120.0 mg/kg/injection, schedule: Q01DX005 (ip), vehicle: saline with Tween-80) is reported as 100 % of control and the T/C (dose: 240.0 mg/kg/injection, schedule: Q01DX005 (ip), vehicle: saline with Tween-80) is reported as 99 % of control.
With COC(=O)C(CO)NC(=O)C(Cc1ccccc1)NC(=O)OC(C)(C)C (stereo not drawn) (Boc-Phe-Ser-OMe; configuration not given here) the T/C [1] was 99 % of control, the T/C [2] was 105 % of control and the T/C [3] was 100 % of control.
For COc1cccc2c1C(=O)c1c(O)c3c(c(O)c1C2=O)C[C@@](O)(C(C)=O)C[C@@H]3OC1CC(NC=O)C(O)C(C)O1 (some centres not stated), the T/C (dose: 1.56 mg/kg/injection, schedule: Q01DX009 (ip), vehicle: saline) was 117 % of control, the T/C (dose: 3.13 mg/kg/injection, schedule: Q01DX009 (ip), vehicle: saline) was 119 % of control and the T/C (dose: 50.0 mg/kg/injection, schedule: Q01DX009 (ip), vehicle: saline) was 153 % of control. The T/C (dose: 100.0 mg/kg/injection, schedule: Q01DX009 (ip), vehicle: saline) was 155 % of control.
In the case of O=C(C=C(C(F)(F)F)C(F)(F)F)c1ccc(C(=O)C=C(C(F)(F)F)C(F)(F)F)cc1, the T/C (dose: 50.0 mg/kg/injection, schedule: Q04DX003 (ip), vehicle: saline with Tween-80) is reported as 118 % of control and the T/C (dose: 100.0 mg/kg/injection, schedule: Q04DX003 (ip), vehicle: saline with Tween-80) is reported as 100 % of control.
CCOC(=O)C1=CNc2ccccc2N=C1N was tested, and the T/C [7] was 112 % of control, the T/C [8] was 115 % of control and the T/C (dose: 25.0 mg/kg/injection, schedule: Q01DX005 (ip), vehicle: saline with Tween-80) was 113 % of control.
For O=C(O)C1C2c3ccccc3C(c3ccccc32)C1C(=O)NCC1CC1 (configuration not stated), the T/C (dose: 60.0 mg/kg/injection, schedule: Q01DX005 (ip), vehicle: Klucel (hydroxypropylcellulose) (HPC)) was 109 % of control and the T/C (dose: 120.0 mg/kg/injection, schedule: Q01DX005 (ip), vehicle: Klucel (hydroxypropylcellulose) (HPC)) was 110 % of control.
In the case of O=C1C2=Nc3ccccc3C(O)N2c2ccccc21 (configuration not stated), the T/C (dose: 12.5 mg/kg/injection, schedule: Q01DX009 (ip), vehicle: saline with Tween-80) is reported as 88 % of control, the T/C (dose: 25.0 mg/kg/injection, schedule: Q01DX009 (ip), vehicle: saline with Tween-80) is reported as 89 % of control and the T/C [9] is reported as 90 % of control and 97 % of control. For the same compound, the T/C [10] was 93 % of control and the T/C [11] was 94 % of control.
For Cc1cc(NC(=O)c2ccc(NC(=O)c3ccc(N)cc3)cc2)ccc1N=Nc1ccc2c(O)c(N=Nc3ccc(S(=O)(=O)O)cc3C)c(S(=O)(=O)O)cc2c1, the T/C [4] was 104 % of control and 107 % of control and 108 % of control, the T/C [5] was 105 % of control and 112 % of control and 117 % of control and the T/C [6] was 107 % of control and 114 % of control. For the same compound, the T/C (dose: 400.0 mg/kg/injection, schedule: Q01DX005 (ip), vehicle: saline with Tween-80) was 113 % of control and 119 % of control.
For N#CSc1ccc2nc(NCO)sc2c1, the T/C [12] was 104 % of control and the T/C [13] was 101 % of control.
Cn1c(=O)c2ccccc2c2ccccc21 was tested, and the T/C [9] was 96 % of control, the T/C [10] was 96 % of control and the T/C [11] was 95 % of control. The T/C (dose: 400.0 mg/kg/injection, schedule: Q01DX009 (ip), vehicle: saline with Tween-80) was 99 % of control.
C=C1C(=O)OC2/C=C(\C)CC(OC(C)=O)/C=C(/CO)CC(OC(=O)/C(C)=C/C)C12 (configuration not stated) was tested, and the T/C (dose: 3.75 mg/kg/injection, schedule: Q01DX009 (ip), vehicle: saline + alcohol) was 90 % of control, the T/C (dose: 7.5 mg/kg/injection, schedule: Q01DX009 (ip), vehicle: saline + alcohol) was 98 % of control and the T/C (dose: 15.0 mg/kg/injection, schedule: Q01DX009 (ip), vehicle: saline + alcohol) was 93 % of control. The T/C (dose: 30.0 mg/kg/injection, schedule: Q01DX009 (ip), vehicle: saline + alcohol) was 86 % of control.
In the case of CSC(=S)N/N=C(\C)c1nccnc1C, the T/C [4] is reported as 101 % of control, the T/C [5] is reported as 106 % of control and the T/C [6] is reported as 111 % of control.
For CCOC(=O)C1C(=O)CN(C(=O)OC)C1C(=O)OCC (configuration not stated), the T/C [4] was 99 % of control, the T/C [5] was 95 % of control and the T/C [6] was 95 % of control.
For COC(=O)C(CS)NC(=O)CCNC(=O)OCc1ccccc1 (configuration not stated), the T/C (dose: 25.0 mg/kg/injection, schedule: Q04DX003 (ip), vehicle: sodium bicarbonate) was 91 % of control, the T/C (dose: 50.0 mg/kg/injection, schedule: Q04DX003 (ip), vehicle: sodium bicarbonate) was 87 % of control and the T/C (dose: 100.0 mg/kg/injection, schedule: Q04DX003 (ip), vehicle: sodium bicarbonate) was 96 % of control. The T/C (dose: 200.0 mg/kg/injection, schedule: Q04DX003 (ip), vehicle: sodium bicarbonate) was 87 % of control and the T/C (dose: 400.0 mg/kg/injection, schedule: Q04DX003 (ip), vehicle: sodium bicarbonate) was 91 % of control.
In the case of Cc1ccc(N=Cc2cccs2)cc1, the T/C [12] is reported as 115 % of control and the T/C [13] is reported as 115 % of control.
